Our source for the IC50 values is patent US7700593B2, “Imidazo- and triazolo-pyridine compounds and methods of use thereof” (Amgen Inc., priority 2006, dated 2010).

Like-named read-outs stand apart in the source and are kept apart here.

One assay addresses p38α (Homo sapiens, UniProt Q16539). As to the kind of experiment: p38 in-vitro HTRF enzyme assay. It is filed as biochemical. The settings on record: IC50 value ranges. The method, boiled down: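 Activated recombinant human p38α with ATP and 100 nM GST-ATF2-Avitag, 1 h at RT in Tris pH 7.5/MgCl2 buffer; compound 10-point 3-fold series from about 1 μM final. HTRF 665/620 nm ratio; IC50 from 4-parameter fit, Ki via Cheng-Prusoff with experimental ATP Km.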
(In TR-FRET formats the signal depends on donor and acceptor labels being close together.)

The test system of a further assay is THP1 cells. As to the kind of experiment: Lipopolysaccharide-activated THP1 cell TNF production assay. The conditions noted are these: LPS-induced TNF-α production in THP1 cells. It is filed as cell-based, human. The method, boiled down: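 THP1 cells at 1E6/mL were stimulated with LPS (1 μg/mL prepared stock) alongside 3-fold serially diluted compound for 3 h at 37 °C. Secreted TNF-α was quantified by electrochemiluminescence sandwich immunoassay. Percent of DMSO control was fitted to a 4-parameter logistic equation.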

For the next assay, the system named is monocytes. Briefly: Lipopolysaccharide-activated monocyte TNF production assay (LPS induced TNF release). The settings on record: LPS induced TNF release from monocytes, read-out: LPS induced TNFa. In kind it is cell-based, human. The method, boiled down:
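Adherent monocytes from human PBMCs were pretreated with compound 60 min, then stimulated with E. coli LPS (30 ng/mL stock added) for 4 h at 37 °C. Supernatant TNF-α measured by sandwich ELISA; concentration giving 50% TNF reduction derived by polynomial fit.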

Sequence of p38α (Q16539 whole entry): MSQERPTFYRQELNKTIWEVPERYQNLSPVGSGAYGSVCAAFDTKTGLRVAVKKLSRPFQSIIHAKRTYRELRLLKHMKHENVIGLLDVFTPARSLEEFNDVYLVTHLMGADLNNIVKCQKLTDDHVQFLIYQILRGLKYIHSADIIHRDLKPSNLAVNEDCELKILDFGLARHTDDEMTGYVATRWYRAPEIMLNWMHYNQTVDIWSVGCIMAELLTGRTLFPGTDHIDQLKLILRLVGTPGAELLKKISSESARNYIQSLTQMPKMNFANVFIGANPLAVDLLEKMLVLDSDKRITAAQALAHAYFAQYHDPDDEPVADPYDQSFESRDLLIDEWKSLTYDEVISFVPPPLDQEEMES

Turning to `Cc1ccc(C(=O)NC2CC2)cc1-c1ccn2c(Cc3ccccc3)nnc2c1` [Example 89, N-cyclopropyl-4-methyl-3-(3-(phenylmethyl)[1,2,4]triazolo[4,3-a]pyridin-7-yl)benzamide], the IC50 on p38α is less than 25 nM; in the assay on THP1 cells (Homo sapiens, THP-1) it was 100 to 250 nM; in the assay on monocytes (Homo sapiens, Monocyte), 250 to 1000 nM.

On to “4-methyl-3-(3-(4-methyl-1,3-oxazol-5-yl)[1,2,4]triazolo[4,3-a]pyridin-7-yl)-N-(1-methyl-1H-pyrazol-5-yl)benzamide [Example 58]”, for which the values for the IC50 against p38α, in the assay on THP1 cells (read-out: THP-1 cell assay) and in the assay with monocytes were 25 to 100 nM, 250 to 1000 nM and 250 to 1000 nM, respectively.

With `CCNC(=O)c1ccc(C)c(-c2ccn3c(-c4ccccc4Cl)nnc3c2)c1` [Example 52, 3-(3-(2-chlorophenyl)[1,2,4]triazolo[4,3-a]pyridin-7-yl)-N-ethyl-4-methylbenzamide], the IC50 on p38α is less than 25 nM; with THP1 cells (Homo sapiens, THP-1) it was 100 to 250 nM; with monocytes (Homo sapiens, Monocyte), 100 to 250 nM.

As to `Cc1ccc(C(=O)NC2CC2)cc1-c1ccn2c(N)nnc2c1` [Example 1, 3-(3-amino[1,2,4]triazolo[4,3-a]pyridin-7-yl)-N-cyclopropyl-4-methylbenzamide], the IC50 against p38α was in the range of 250 to 1000 nM; in the assay on THP1 cells (Homo sapiens, THP-1), 1000 to 5000 nM; with monocytes (Homo sapiens, Monocyte), 1000 to 5000 nM.

For the compound `Cc1ccc(C(=O)Nc2ccnn2C)cc1-c1ccn2c(-c3ccccc3F)nnc2c1` [Example 30, 3-(3-(2-fluorophenyl)[1,2,4]triazolo[4,3-a]pyridin-7-yl)-4-methyl-N-(1-methyl-1H-pyrazol-5-yl)benzamide], the IC50 is less than 25 nM against p38α; 25 to 100 nM in the assay with THP1 cells (Homo sapiens, THP-1); 25 to 100 nM with monocytes (Homo sapiens, Monocyte).

Consider `Cc1c(F)cc(C(=O)NC2CC2)cc1-c1ccn2c(C(C)(C)C)nnc2c1` [Example 50, N-cyclopropyl-3-(3-(1,1-dimethylethyl)[1,2,4]triazolo[4,3-a]pyridin-7-yl)-5-fluoro-4-methylbenzamide], for which the IC50 against p38α is less than 25 nM; with THP1 cells (Homo sapiens, THP-1) it was less than 25 nM; in the assay with monocytes (Homo sapiens, Monocyte) it was less than 25 nM.

For `Cc1cc(Cl)c(C(=O)NC2CC2)cc1-c1ccn2c(-c3ccccc3Cl)nnc2c1` [Example 90, 2-chloro-5-(3-(2-chlorophenyl)[1,2,4]triazolo[4,3-a]pyridin-7-yl)-N-cyclopropyl-4-methylbenzamide], the IC50 was 250 to 1000 nM against p38α; 1000 to 5000 nM in the assay with THP1 cells (Homo sapiens, THP-1); greater than 5000 nM in the assay with monocytes (Homo sapiens, Monocyte).

Turning to `Cc1ccc(C(=O)NC2CC2)cc1-c1ccn2c(C34CC5CC(CC(C5)C3)C4)nnc2c1` [Example 98, N-cyclopropyl-4-methyl-3-(3-((3s,5s,7s)-tricyclo[3.3.1.1~3,7~]dec-1-yl)[1,2,4]triazolo[4,3-a]pyridin-7-yl)benzamide], the IC50 is less than 25 nM against p38α, 25 to 100 nM in the assay on THP1 cells (read-out: THP-1 cell assay) and 100 to 250 nM with monocytes.

With `Cc1ccc(C(=O)NC2(C)CC2)cc1-c1ccn2c(-c3ccc(F)cc3C)nnc2c1` [Example 16, 3-(3-(4-fluoro-2-methylphenyl)[1,2,4]triazolo[4,3-a]pyridin-7-yl)-4-methyl-N-(1-methylcyclopropyl)benzamide], the IC50 lay within 25 to 100 nM against p38α; 100 to 250 nM with THP1 cells (Homo sapiens, THP-1); 100 to 250 nM with monocytes (Homo sapiens, Monocyte).

For `Cc1c(F)cc(C(=O)NC2CC2)cc1-c1ccn2c(-c3ccccc3C(F)(F)F)nnc2c1` [Example 74, N-cyclopropyl-3-fluoro-4-methyl-5-(3-(2-(trifluoromethyl)phenyl)[1,2,4]triazolo[4,3-a]pyridin-7-yl)benzamide], the IC50 on p38α was less than 25 nM; with THP1 cells (Homo sapiens, THP-1), less than 25 nM; with monocytes (Homo sapiens, Monocyte), less than 25 nM.

For `Cc1cccc(Cl)c1-c1nnc2cc(-c3cc(C(=O)NC4CC4)cc(F)c3C)ccn12` [Example 91, 3-(3-(2-chloro-6-methylphenyl)[1,2,4]triazolo[4,3-a]pyridin-7-yl)-N-cyclopropyl-5-fluoro-4-methylbenzamide], the IC50 at p38α is less than 25 nM; in the assay with THP1 cells (Homo sapiens, THP-1) it was less than 25 nM; with monocytes (Homo sapiens, Monocyte) it was less than 25 nM.

For the compound `CCc1ccccc1-c1nnc2cc(-c3cc(C(=O)NC4CC4)ccc3C)ccn12` [Example 103, N-cyclopropyl-3-(3-(2-ethylphenyl)[1,2,4]triazolo[4,3-a]pyridin-7-yl)-4-methylbenzamide], the IC50 is less than 25 nM against p38α; 25 to 100 nM in the assay with THP1 cells (Homo sapiens, THP-1); 100 to 250 nM in the assay on monocytes (Homo sapiens, Monocyte).

As for `Cc1c(F)cc(C(=O)NC2CC2)cc1-c1ccn2c(-c3c(F)cccc3F)nnc2c1` [Example 64, N-cyclopropyl-3-(3-(2,6-difluorophenyl)[1,2,4]triazolo[4,3-a]pyridin-7-yl)-5-fluoro-4-methylbenzamide], the IC50 against p38α was less than 25 nM; in the assay with THP1 cells (Homo sapiens, THP-1), less than 25 nM; with monocytes (Homo sapiens, Monocyte), less than 25 nM.

For the compound `Cc1ccc(C(=O)NC2CC2)cc1-c1ccn2c(CC(C)(C)C)nnc2c1` [Example 25, N-cyclopropyl-3-(3-(2,2-dimethylpropyl)[1,2,4]triazolo[4,3-a]pyridin-7-yl)-4-methylbenzamide], the IC50 against p38α is less than 25 nM; in the assay on THP1 cells (Homo sapiens, THP-1), 25 to 100 nM; in the assay with monocytes (Homo sapiens, Monocyte) it was 25 to 100 nM.

As for `Cc1ccc(C(=O)NC2CC2)cc1-c1ccn2c(C3CCCCC3)nnc2c1` [Example 94, 3-(3-cyclohexyl[1,2,4]triazolo[4,3-a]pyridin-7-yl)-N-cyclopropyl-4-methylbenzamide], the IC50 was less than 25 nM at p38α; 25 to 100 nM in the assay on THP1 cells (Homo sapiens, THP-1); 100 to 250 nM in the assay with monocytes (Homo sapiens, Monocyte).

Turning to `Cc1ccc(C(=O)NC2CC2)cc1-c1ccn2c(-c3c(Cl)cccc3Cl)nnc2c1` [Example 62, N-cyclopropyl-3-(3-(2,6-dichlorophenyl)[1,2,4]triazolo[4,3-a]pyridin-7-yl)-4-methylbenzamide], the IC50 is less than 25 nM on p38α; less than 25 nM in the assay on THP1 cells (Homo sapiens, THP-1); less than 25 nM in the assay on monocytes (Homo sapiens, Monocyte).

Turning to `Cc1ccc(C(=O)NC2CC2)cc1-c1cc2nnc(-c3ccccc3Cl)n2cc1C` [Example 35, 3-(3-(2-chlorophenyl)-6-methyl[1,2,4]triazolo[4,3-a]pyridin-7-yl)-N-cyclopropyl-4-methylbenzamide], the IC50 against p38α was less than 25 nM; with THP1 cells (Homo sapiens, THP-1) it was less than 25 nM; with monocytes (Homo sapiens, Monocyte) it was 25 to 100 nM.

Regarding `Cc1ccc(C(=O)NC2CC2)cc1-c1ccn2c(-c3ccncc3Cl)nnc2c1` [Example 80, 3-(3-(3-chloro-4-pyridinyl)[1,2,4]triazolo[4,3-a]pyridin-7-yl)-N-cyclopropyl-4-methylbenzamide], the IC50 against p38α was less than 25 nM; with THP1 cells (Homo sapiens, THP-1), less than 25 nM; in the assay on monocytes (Homo sapiens, Monocyte) it was 25 to 100 nM.

On to `Cc1ccc(C(=O)NC2CC2)cc1-c1ccn2c(N(C)c3ccccc3)nnc2c1` [Example 75, N-cyclopropyl-4-methyl-3-(3-(methyl(phenyl)amino)[1,2,4]triazolo[4,3-a]pyridin-7-yl)benzamide], for which the IC50 was less than 25 nM against p38α; 25 to 100 nM with THP1 cells (Homo sapiens, THP-1); 250 to 1000 nM in the assay on monocytes (Homo sapiens, Monocyte).

For `Cc1ccc(C(=O)NC2CC2)cc1-c1ccn2c(-c3c(C)cccc3Cl)nnc2c1` [Example 81, 3-(3-(2-chloro-6-methylphenyl)[1,2,4]triazolo[4,3-a]pyridin-7-yl)-N-cyclopropyl-4-methylbenzamide], the IC50 is less than 25 nM at p38α; less than 25 nM in the assay with THP1 cells (Homo sapiens, THP-1); less than 25 nM with monocytes (Homo sapiens, Monocyte).
